Values joined by “and” are separate entries in the source; they are usually repeats but may differ in a detail not shown here. Identical values can stand only once. “Also recorded” adds a separate entry of the source.
What was measured:
[1] = target: T1, FAST (variant of the photoactive yellow protein (PYP), SEQ ID NO: 3) (Halorhodospira halophila, UniProt P16113, C69G/D97P/F96I/M100R/Q99S/T101G/T95M/Y94W/Y98T); assay: Physico-chemical (absorption/fluorescence) properties of FAST:fluorogen complexes; type: physicochemical; settings: for Brightness (ε×ϕ) / ε, molar absorption coefficient at λabs / λabs, wavelength of maximal absorption / λem, wavelength of maximal emission / ϕ, fluorescence quantum yield: FAST:fluorogen complex in PBS pH 7.4
T1 construct: His tag; made in house; host or cells: Rosetta(DE3)pLysS E. coli
Experimental: In an embodiment, the fluorescence quantum yields after one-photon excitation ϕ are calculated from the relation: […]
Methods for measuring the brightness are well-known in the art. Brightness corresponds to the fluorescence output per emitter and is the product of the molar absorption coefficient (at the excitation wavelength) and the fluorescence quantum yield.
(§1) His-tagged FAST was expressed in Rosetta(DE3)pLysS E. coli (New England Biolabs). Cells were grown at 37° C. in Lysogeny Broth (LB) medium to OD600 nm 0.6. Expression was induced for 4 h by adding isopropyl β-D-1-thiogalactopyranoside (IPTG) to a final concentration of 1 mM. Cells were harvested by centrifugation (6,000×g for 15 min at 4° C.) and frozen. The cell pellet was resuspended in lysis buffer (phosphate buffer 50 mM, NaCl 150 mM, MgCl2 2.5 mM, protease inhibitor, DNase, pH 7.4) and sonicated (5 min at 20% of amplitude). The lysate was incubated for 2 h at 4° C. to allow DNA digestion by DNase. Cellular fragments were removed by centrifugation (15,000×g for 1 h at 4° C.). The supernatant was incubated overnight at 4° C. under gentle agitation with Ni-NTA agarose beads in phosphate buffered saline (PBS) (sodium phosphate 50 mM, NaCl 150 mM, pH 7.4) complemented with 10 mM Imidazole. Beads were washed with 20 volumes of PBS containing 20 mM Imidazole, and with 5 volumes of PBS complemented with 40 mM Imidazole. His-tagged proteins were eluted with 5 volumes of PBS complemented with 0.5 M Imidazole, followed by dialysis with PBS.
(§2) UV/Vis absorption spectra were recorded in 1 cm×1 cm quartz cuvettes (Hellma) on a diode array UV/Vis spectrophotometer (Evolution array, Thermo Scientific). Corrected fluorescence spectra upon one-photon excitation were recorded with a Photon Technology International QuantaMaster QM-1 spectrofluorimeter (PTI, Monmouth Junction, N.J.) equipped with a Peltier cell holder (TLC50, Quantum Northwest, Shoreline, Wash.).
(§3) Physico-chemical properties of FAST:fluorogen complexes in PBS pH 7.4 are described in Table 2 below: λabs, wavelength of maximal absorption; λem, wavelength of maximal emission; ε, molar absorption coefficient at λabs; ϕ, fluorescence quantum yield; KD affinity constant. The brightness is equal to ε×ϕ.

[2] = target: T1, FAST (variant of the photoactive yellow protein (PYP), SEQ ID NO: 3); assay: biochemical; type: binding; settings: for Kd: KD affinity constant, FAST:fluorogen complex in PBS pH 7.4
Experimental: In an embodiment, the thermodynamic dissociation constant KD is determined by spectrofluorometric titration as described in the Examples.
as §1, §2, §3

[3] = system: HeLa cells displaying FAST on the extracellular side (Ig κ-chain leader / PDGFR transmembrane domain); assay: Selective labeling of cell-surface FAST-tagged proteins, confocal imaging; type: cell-based; settings: for Localisation of fluorescent labeling of FAST-tagged protein: 5 min
Experimental: (§4) The plasmid pAG211 for mammalian expression of FAST (fused also to mCherry as additional transfection marker) at the outer plasma membrane was obtained by inserting the sequence coding the protein of interest within the pDisplay plasmid (ThermoFisher) using Sal I and Bgl II restriction sites. The plasmid pAG96 for cytoplasmic expression of FAST fused to mCherry was previously reported (Plamont, M.-A. et al., 2016).
(§5) HeLa cells were cultured in DMEM supplemented with phenol red, Glutamax I, 10% (vol/vol) fetal calf serum (FCS), and 1% penicillin-streptomycin at 37° C. within a 5% CO2 atmosphere. For microscopic imaging, cells were seeded in μDish or μSlide IBIDI (Biovalley) coated with poly-L-lysine. Cells were transiently transfected using Genejuice (Merck) according to the manufacturer's protocol. Before imaging, cells were washed with PBS, and treated with DMEM media (without serum and phenol red) containing the fluorogens at the indicated concentration. Cells were imaged directly without washing.
(§6) Confocal micrographs were acquired on a Zeiss LSM 710 Laser Scanning Microscope equipped with a Plan Apochromat 63×/1.4 NA oil immersion objective. ZEN software was used to collect the data. Images were analyzed with Image J. Flow cytometry analyses were performed on an Accuri C6 cytometer (BD Biosciences).
Next, the use of HBRAA-3E for the selective labeling of cell-surface FAST-tagged proteins was studied. A polypeptide was engineered comprising a FAST in between a murine Ig κ-chain leader sequence and the platelet derived growth factor receptor (PDGFR) transmembrane domain. FAST was fused at the […] of the PDGFR transmembrane domain, which anchors the protein to the plasma membrane. The resulting FAST-tagged protein was expressed transiently in HeLa cells.

[4] = system: HeLa cells expressing FAST fused to mCherry in the cytoplasm; assay: Cell exclusion after prolonged exposure, confocal imaging; type: cell-based; settings: 5 μM, two hours, cytoplasmic FAST-mCherry
Experimental: as §4, §5, §6
Cell exclusion after prolonged exposure was then evaluated. […]

T1 sequence (P16113 whole entry C69G/Y94W/T95M/F96I/D97P/Y98T/Q99S/M100R/T101G): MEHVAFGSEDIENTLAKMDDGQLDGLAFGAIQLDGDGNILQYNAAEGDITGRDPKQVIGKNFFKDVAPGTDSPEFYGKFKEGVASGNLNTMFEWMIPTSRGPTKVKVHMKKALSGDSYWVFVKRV

Structure (SMILES)	Brightness (ε×ϕ) [1]	ε, molar absorption coefficient at λabs [1] [mM⁻¹ cm⁻¹]	λabs, wavelength of maximal absorption [1] [nm]	λem, wavelength of maximal emission [1] [nm]	ϕ, fluorescence quantum yield [1] [%]	Affinity for FAST, in words [2]	Kd [2]	other results
O=C1NC(=S)S/C1=C\c1ccc(O)cc1 [HBR, 4-hydroxybenzylidene rhodanine, reference compound]	4,000	44	467	527	9			
O=C(O)CN1C(=O)/C(=C/c2ccc(O)cc2)SC1=S [HBRAA, (Z)-2-(5-(4-hydroxybenzylidene)-4-oxo-2-thioxothiazolidin-3-yl)acetic acid]			488	555		almost no affinity for FAST	> 20 µM	
Cc1cc(/C=C2\SC(=S)N(CC(=O)O)C2=O)c(C)cc1O [HBRAA-2,5DM, (Z)-2-(5-(4-hydroxy-2,5-dimethylbenzylidene)-4-oxo-2-thioxothiazolidin-3-yl)acetic acid]	3,200	63	519	566	5	none of the complexes formed by di-substituted compounds HBRAA-2,5DM, HBRAA-3,5DM and HBRAA-3,5DMO has an affinity higher than the one of HBRAA-3M	5.4 µM	
COc1cc(O)ccc1/C=C1\SC(=S)N(CC(=O)O)C1=O [HBRAA-2OM, (Z)-2-(5-(4-hydroxy-2-methoxybenzylidene)-4-oxo-2-thioxothiazolidin-3-yl)acetic acid]	about 2,800	55	497	537	5		0.5 µM and 0.48 µM	Brightness (ε×ϕ) ([1]; listed as FAST:HBRAA-2OM): 2,800
Cc1cc(/C=C2\SC(=S)N(CC(=O)O)C2=O)cc(C)c1O [HBRAA-3,5DM, (Z)-2-(5-(4-hydroxy-3,5-dimethylbenzylidene)-4-oxo-2-thioxothiazolidin-3-yl)acetic acid]			522	571	4	none of the complexes formed by di-substituted compounds HBRAA-2,5DM, HBRAA-3,5DM and HBRAA-3,5DMO has an affinity higher than the one of HBRAA-3M	> 20 µM	
COc1cc(/C=C2\SC(=S)N(CC(=O)O)C2=O)cc(OC)c1O [HBRAA-3,5DOM, (Z)-2-(5-(4-hydroxy-3,5-dimethoxybenzylidene)-4-oxo-2-thioxothiazolidin-3-yl)acetic acid]			532	606	1	none of the complexes formed by di-substituted compounds HBRAA-2,5DM, HBRAA-3,5DM and HBRAA-3,5DMO has an affinity higher than the one of HBRAA-3M	> 20 µM	
CCc1cc(/C=C2\SC(=S)N(CC(=O)O)C2=O)ccc1O [HBRAA-3E, (Z)-2-(5-(3-ethyl-4-hydroxybenzylidene)-4-oxo-2-thioxothiazolidin-3-yl)acetic acid]	about 4,900	61	505	559	8		~1.3 µM and 1.3 µM	Localisation of fluorescent labeling of FAST-tagged protein ([3]; 5 μM): fluorescent labeling only at the plasma membrane; also recorded: revealed only surface-exposed proteins; Intracellular labeling upon longer incubation ([3]; 5 μM, 1 h): no intracellular labeling; Intracellular labeling (cell exclusion) [4]: no intracellular labeling; Red shift in absorption compared to FAST:HMBR [1]: 25 nm; Red shift in emission compared to FAST:HMBR [1]: 20 nm; Brightness (ε×ϕ) ([1]; listed as FAST:HBRAA-3E): 4,900
Cc1cc(/C=C2\SC(=S)N(CC(=O)O)C2=O)ccc1O [HBRAA-3M, (Z)-2-(5-(4-hydroxy-3-methylbenzylidene)-4-oxo-2-thioxothiazolidin-3-yl)acetic acid]	3,400	56	502	557	6		6.4 µM	Brightness compared with FAST:HMBR ([1]; in words): three-fold lower brightness
CCOc1cc(/C=C2\SC(=S)N(CC(=O)O)C2=O)ccc1O [HBRAA-3OE, (Z)-2-(5-(4-hydroxy-3-ethoxybenzylidene)-4-oxo-2-thioxothiazolidin-3-yl)acetic acid]	about 3,700	62	525	575	6		1.7 µM	Brightness (ε×ϕ) ([1]; listed as FAST:HBRAA-3OE): 3,700; Shift of absorption and emission of the FAST complex compared with HBRAA-3E ([1]; in words): further red-shifted the absorption and the emission
COc1cc(/C=C2\SC(=S)N(CC(=O)O)C2=O)ccc1O [HBRAA-3OM, (Z)-2-(5-(4-hydroxy-3-methoxybenzylidene)-4-oxo-2-thioxothiazolidin-3-yl)acetic acid]			520	572	2	almost no affinity with FAST	> 20 µM	
Cc1cc(/C=C2\SC(=S)NC2=O)ccc1O [HMBR, 4-hydroxy-3-methylbenzylidene rhodanine, reference compound]								Localisation of fluorescent labeling of FAST-tagged protein ([3]; 5 μM): labeling of FAST-tagged proteins both at the membrane and within the secretory pathway; also recorded: revealed membrane and intracellular proteins; Labeling after subsequent addition to cells pre-treated 1 h with HBRAA-3E ([3]; immediate imaging (<10 s)): revealed proteins within the secretory pathway

Source: US11162951B2, “Membrane-impermeant fluorogenic chromophores” (PARIS SCIENCES ET LETTRES, priority 2017, dated 2021)
